In data set [1] the target is T1, Oryza sativa P5C synthetase 2 (Oryza sativa subsp. japonica, UniProt O04226).
T1 sequence (O04226 1-716): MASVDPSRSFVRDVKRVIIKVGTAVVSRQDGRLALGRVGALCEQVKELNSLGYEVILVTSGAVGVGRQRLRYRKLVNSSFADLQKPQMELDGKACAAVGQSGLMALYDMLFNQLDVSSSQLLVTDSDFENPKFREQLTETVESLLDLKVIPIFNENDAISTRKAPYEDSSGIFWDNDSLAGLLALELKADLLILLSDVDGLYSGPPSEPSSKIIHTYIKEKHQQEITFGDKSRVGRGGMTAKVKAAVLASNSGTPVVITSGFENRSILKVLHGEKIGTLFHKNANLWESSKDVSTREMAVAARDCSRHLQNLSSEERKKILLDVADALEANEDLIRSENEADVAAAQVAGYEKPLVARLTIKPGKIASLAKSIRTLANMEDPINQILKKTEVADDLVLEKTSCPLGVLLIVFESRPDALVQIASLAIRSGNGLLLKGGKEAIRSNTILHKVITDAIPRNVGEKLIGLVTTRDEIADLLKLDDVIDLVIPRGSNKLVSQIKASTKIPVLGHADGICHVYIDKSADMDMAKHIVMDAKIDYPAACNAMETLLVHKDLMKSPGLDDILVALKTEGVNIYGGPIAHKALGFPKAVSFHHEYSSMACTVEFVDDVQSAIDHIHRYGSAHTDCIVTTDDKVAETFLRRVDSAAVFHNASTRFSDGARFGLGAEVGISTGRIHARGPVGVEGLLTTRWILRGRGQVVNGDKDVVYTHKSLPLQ
Description: NADPH oxidation assay (full forward, physiological reaction of P5C synthetase). Particulars: for concentrations found inhibitory (exceeding): level above which activity is reduced; for Vmax / Km: named substrate varied, Lineweaver-Burk plot; for Vmax: others fixed at 20mM glutamate, 30°C, pH 7.5; for Km: read-out: KM(app), others saturating (20mM glutamate, 4mM ATP, 0.4mM NADPH), ATP value from concentrations ≤4mM; for effect on P5CS2 activity (in words): increasing concentrations, range tested. The procedure:
The physiological, forward reaction of P5C synthetase was measured by following the glutamate-dependent oxidation of NADPH in the presence of ATP. Aliquots of the purified enzyme preparations (0.5–1μg protein) were incubated in a final volume of 200μl with 20mML-glutamate, 4mM ATP, and 0.4mM NADPH in 50mM Tris-HCl buffer, pH 7.5. When aiming at the evaluation of the effect of chlorides on enzyme activity, Tris-HCl buffer concentration was lowered to 10mM, or replaced with 10mM potassium phosphate buffer, pH 7.5. Incubation proceeded at 30°C for up to 20min. The decrease of absorbance at 340nm was determined at 0.5min intervals against exact blanks in which glutamate had been omitted. Assays were either performed in cuvettes with 0.2 or 1cm pathlength (UVette; Eppendorf, Milan, Italy), or in 96-microwell plates. In the former case, OD340 was determined with a Novaspec plus spectrophotometer (Amersham Biosciences, Milan, Italy) equipped with an UVette adaptor. In the latter case, the plate was equilibrated at 30°C prior to enzyme addition, and absorbance was measured using a Ledetect plate reader (Labexim, Lengau, Austria) equipped with a LED plugin at 340nm. Each sample was carried out in triplicate (technical replications). Each determination was repeated with at least three different enzyme preparations (biological replications). Presented data refer to a single enzyme preparation, and are means±SE over technical replicates. Linear and non-linear regressions of data, as well as kinetic constant values, were computed using Prism 6 for Windows, version 6.03 (GraphPad Software, San Diego, CA, United States).

A further data set deals with P5CS from A. thaliana. Further details: method as in Parre et al., 2010. Particulars: half-reaction; ref Parre et al., 2010; cited from earlier work.
The test system of data set [2] is P5CS from V. aconitifolia. The following applies: cited from earlier work; for Km: glutamyl kinase assay, ref Zhang et al., 1995.
Substrate in data set [3]: N[C@@H](CCC(=O)O)C(=O)O
Description: purified protein, by the assay type. The following applies: other: named substrate varied, others saturating (20mM glutamate, 4mM ATP, 0.4mM NADPH); Lineweaver-Burk plot; ATP value from concentrations ≤4mM; pH 7.5; 30.0 °C.
Description: The physiological, forward reaction of P5C synthetase was measured by following the glutamate-dependent oxidation of NADPH in the presence of ATP. […] When aiming at the evaluation of the effect of chlorides on enzyme activity, Tris-HCl buffer concentration was lowered to 10mM, or replaced with 10mM potassium phosphate buffer, pH 7.5. Incubation proceeded at 30°C for up to 20min. The decrease of absorbance at 340nm was determined at 0.5min intervals against exact blanks in which glutamate had been omitted. Assays were either performed in cuvettes with 0.2 or 1cm pathlength (UVette; Eppendorf, Milan, Italy), or in 96-microwell plates. In the former case, OD340 was determined with a Novaspec plus spectrophotometer (Amersham Biosciences, Milan, Italy) equipped with an UVette adaptor. In the latter case, the plate was equilibrated at 30°C prior to enzyme addition, and absorbance was measured using a Ledetect plate reader (Labexim, Lengau, Austria) equipped with a LED plugin at 340nm. Each sample was carried out in triplicate (technical replications). Each determination was repeated with at least three different enzyme preparations (biological replications). […] Linear and non-linear regressions of data, as well as kinetic constant values, were computed using Prism 6 for Windows, version 6.03 (GraphPad Software, San Diego, CA, United States).

[4] abbreviates: read-out: IC50 (concentration inhibiting activity by 50%), 20mM glutamate, 4mM ATP, 0.4mM NADPH, 50mM Tris-HCl pH 7.5, 30°C, non-linear regression.
Setting [5] is: read-out: IC50 (concentration inhibiting activity by 50%), cations, added as chlorides, 10mM potassium phosphate buffer pH 7.5, Mg++ data relative to equimolar NaCl.
The mark [6] stands for this setting: IC50 (concentration inhibiting activity by 50%), 20mM glutamate, 4mM ATP, 0.4mM NADPH, 50mM Tris-HCl pH 7.5, 30°C, non-linear regression.
Setting [7] is: IC50 (concentration inhibiting activity by 50%).

We go through 26 molecules from paper PMC8480329, “Enzymology and Regulation of δ^1-Pyrroline-5-Carboxylate Synthetase 2 From Rice” (Frontiers in Plant Science, 2021).

Values joined by “and” are separate entries in the source; they are usually repeats but may differ in a detail not shown here. Equal entries are not always repeated. Where two headings read alike, the source gives them in different places.

As usually defined, the Km is the concentration of substrate that gives half-maximal velocity.

For the molecule `Nc1ncnc2c1ncn2[C@@H]1O[C@H](COP(=O)(O)OP(=O)(O)O)[C@@H](O)[C@H]1O` [ADP], in data set [1], the “concentrations found inhibitory (exceeding)” value is reported as greater than 4 mM. Also, the IC50 in data set [1] (setting [4]) is 9 mM and 9.06 mM.

For `Nc1ncnc2c1ncn2[C@@H]1O[C@H](COP(=O)(O)OP(=O)(O)OP(=O)(O)O)[C@@H](O)[C@H]1O` [ATP], the “concentrations found inhibitory (exceeding)” value in data set [1] was “exceeding 4 mM”. Further, the Vmax in data set [1] (4mM ATP, 0.4mM NADPH) is given as 17.96±0.46 nkat (mg protein)^−1. Also, the Ki in data set [1] (read-out: KI value for ATP (substrate inhibition), fit to substrate inhibition model, 20mM glutamate, 0.4mM NADPH) was found to be 11.6 ± 5.1 mM. Further, the Km in data set [1] is 760 µM and 764 µM; in the data set on P5CS from A. thaliana, 1500 µM; in data set [2], 2700 µM.

In the case of `NC(=O)C[C@H](N)C(=O)O` [Asparagine], in data set [1], the “effect on P5CS2 activity up to 100mM (in words)” value (“effect on P5CS2 activity up” below) was “ineffective”.

For `[Ca+2]` [Ca^++], the “effect on P5CS2 activity (in words)” value in data set [1] is reported as “strong inhibitory effect”. In addition, the IC50 in data set [1] (setting [5]) came to 4.09 mM.

For the molecule `O=C(O)[C@H]1CCCN1` [D-proline], in data set [1], the “effect on P5CS2 activity up” value is listed as “unable to interfere”.

`O=P(O)(O)O` [HPO4^−−]: in data set [1], the “concentrations found inhibitory (exceeding)” value was “higher than 20 mM”.

In data set [1] (setting [6]), `O=C(O)[C@@H]1CC(O)CN1` (stereo partly drawn) [L-4-hydroxyproline] returned an IC50 of 89.5 mM. The “effect on P5CS2 activity (in words)” value in data set [1] was “partial inhibition”.

Regarding `N[C@@H](CCC(=O)O)C(=O)O` [L-Glu, L-glutamate], the Vmax in data set [1] (4mM ATP, 0.4mM NADPH) was 17.38±0.52 nkat (mg protein)^−1. Besides, in data set [2], the Km was 3600 µM.

In the case of `O=C(O)[C@@H]1CCCN1` [L-proline], the catalytic rate retained entry in data set [1] (10mM proline) is given as “less than 20%”. Also, the IC50 was 2.91 mM in data set [1] (setting [7]) and 6 mM in data set [2] (ref Hu et al., 1992, read-out: concentration giving 50%-inhibition).

In data set [1] (Mg++ ions at 20mM), `[Mg+2]` [Mg^++] yielded an inhibition of activity of 25%. In data set [1], the “effect on P5CS2 activity (in words)” value is recorded as “strong inhibitory effect”. Moreover, the IC50 in data set [1] (setting [5]) was 34.8 mM.

Turning to `NC(=O)C1=CN([C@@H]2O[C@H](COP(=O)(O)OP(=O)(O)OC[C@H]3O[C@@H](n4cnc5c(N)ncnc54)[C@H](O)[C@@H]3O)[C@@H](O)[C@H]2O)C=CC1` [NADH], the “utilization as electron donor instead of NADPH” value in data set [1] (highest concentration tested 0.5mM) was “No detectable utilization”.

As to `NC(=O)C1=CN([C@@H]2O[C@H](COP(=O)(O)OP(=O)(O)OC[C@H]3O[C@@H](n4cnc5c(N)ncnc54)[C@H](OP(=O)(O)O)[C@@H]3O)[C@@H](O)[C@H]2O)C=CC1` [NADPH], the Vmax in data set [1] (4mM ATP, 0.4mM NADPH) is on record as 18.36±0.64 nkat (mg protein)^−1. Moreover, the Km in data set [1] turned out to be 45 ± 4 µM.

As for `NC(=O)c1ccc[n+]([C@@H]2O[C@H](COP(=O)([O-])OP(=O)(O)OC[C@H]3O[C@@H](n4cnc5c(N)ncnc54)[C@H](OP(=O)(O)O)[C@@H]3O)[C@@H](O)[C@H]2O)c1` [NADP^+], the IC50 in data set [1] (setting [4]) is 0.4 mM and 0.389 mM.

For the molecule `NC(=O)c1ccc[n+]([C@@H]2O[C@H](COP(=O)([O-])OP(=O)(O)OC[C@H]3O[C@@H](n4cnc5c(N)ncnc54)[C@H](O)[C@@H]3O)[C@@H](O)[C@H]2O)c1` [NAD^+], the “effect on P5CS2 activity (in words)” value in data set [1] is given as “completely ineffective”.

Regarding `O=C(O)C1CCC=N1` (stereo not drawn) [P5C, δ^1-pyrroline-5-carboxylate], the “effect on P5CS2 activity (in words)” value in data set [1] is on record as “did not exert any significant effect”.

With `O=C(O)[C@@H]1CCCCN1` [Pipecolate, pipecolic acid], the “effect on P5CS2 activity (in words)” value in data set [1] is “completely ineffective”.

In the case of `N=C(N)NCCC[C@H](N)C(=O)O` [arginine], in data set [1], the IC50 was 63.9 mM.

For the molecule `O=C(O)C1CCN1` (stereo not drawn) [azetidine-2-carboxylic acid], the IC50 in data set [1] (setting [6]) was 11 mM. Besides, in data set [1] (versus IC50 of L-proline), the “IC50 relative to proline (fold higher)” value came to 3.8 fold.

Take `Cl` [chloride anions]: in data set [1] (chlorides in the 10–100mM range), the “stimulation of P5CS2 activity” value was “up to 40%”. Also, the “concentration range with stimulatory effect” value in data set [1] (chlorides of various cations) was in the range of 10 to 100 mM.

In the case of `NC(=O)CC[C@H](N)C(=O)O` [glutamine], in data set [1], the IC50 was 89.7 mM and the “concentrations found inhibitory (exceeding)” value is reported as “exceeding 10 mM”.

As for `O=P(O)(O)O` [inorganic phosphate], the “effect on P5CS2 activity (in words)” value in data set [1] is given as “did not exert any significant effect”.

Take `NCCC[C@H](N)C(=O)O` [ornithine]: the IC50 in data set [1] (setting [7]) amounted to 52.6 mM. Moreover, in data set [1], the “concentrations found inhibitory (exceeding)” value was “exceeding 2 mM”.

In data set [1] (setting [6]), `O=P(O)(O)C1CCCN1` (stereo not drawn) [phosphonoproline] showed an IC50 of 42.2 mM. Also, in data set [1], the “effect on P5CS2 activity (in words)” value was “partial inhibition”.

Regarding `[Na+]` [sodium cations], the “concentrations found inhibitory (exceeding)” value in data set [1] is on record as “exceeding 100 mM”.

For the molecule `O=C(O)CCC(=O)C(=O)O` [α-ketoglutarate], in data set [1], the “effect on P5CS2 activity up” value was “ineffective”.

B1: Oryza sativa P5C synthetase 2 (Oryza sativa Japonica Group) (protein)
chain: MASVDPSRSFVRDVKRVIIKVGTAVVSRQDGRLALGRVGALCEQVKELNSLGYEVILVTSGAVGVGRQRLRYRKLVNSSFADLQKPQMELDGKACAAVGQSGLMALYDMLFNQLDVSSSQLLVTDSDFENPKFREQLTETVESLLDLKVIPIFNENDAISTRKAPYEDSSGIFWDNDSLAGLLALELKADLLILLSDVDGLYSGPPSEPSSKIIHTYIKEKHQQEITFGDKSRVGRGGMTAKVKAAVLASNSGTPVVITSGFENRSILKVLHGEKIGTLFHKNANLWESSKDVSTREMAVAARDCSRHLQNLSSEERKKILLDVADALEANEDLIRSENEADVAAAQVAGYEKPLVARLTIKPGKIASLAKSIRTLANMEDPINQILKKTEVADDLVLEKTSCPLGVLLIVFESRPDALVQIASLAIRSGNGLLLKGGKEAIRSNTILHKVITDAIPRNVGEKLIGLVTTRDEIADLLKLDDVIDLVIPRGSNKLVSQIKASTKIPVLGHADGICHVYIDKSADMDMAKHIVMDAKIDYPAACNAMETLLVHKDLMKSPGLDDILVALKTEGVNIYGGPIAHKALGFPKAVSFHHEYSSMACTVEFVDDVQSAIDHIHRYGSAHTDCIVTTDDKVAETFLRRVDSAAVFHNASTRFSDGARFGLGAEVGISTGRIHARGPVGVEGLLTTRWILRGRGQVVNGDKDVVYTHKSLPLQ
Regarding B1, in data set [3], the Km stood at 2690 ± 190 µM.
